Measurements published in patent US9505709B2, “Compositions and methods relating to ionic salts of peptides” (Thetis Pharmaceuticals LLC, priority 2014, dated 2016).

Legend:
[1] = Oral pharmacokinetics (oral gavage), plasma free EPA or free DHA; type: in vivo, Sprague-Dawley rats; details: rat
Protocol: Experiments via Oral Gavage: Oral pharmacokinetic parameters of TP-212 (Lysyl-Lysine Bis-EPA), TP-312 (Lysyl-Lysine Bis-DHA), EPA-EE, EPA FFA and DHA FFA were determined in Sprague-Dawley rats. EPA-EE is 97% pure ethyl ester form of eicosapentaenoic acid. It is the principal polyunsaturated fatty acid in Vascepa, an Omega-3 compound approved in the U.S. for the treatment of severe hypertriglyceridemia. EPA FFA is 97% pure free fatty acid form of eicosapentaenoic acid and DHA FFA is 98% pure free fatty acid DHA. EPA FFA and DHA FFA are the two principal poly-unsaturated fatty acids in Epanova, an Omega-3 compound approved in the U.S. for the treatment of severe hypertriglyceridemia. The subject drugs were administered by oral gavage as an aqueous solution in de-ionized water to 6 Sprague-Dawley rats per group (3 males and 3 females). Rats were dosed at 40 mg/kg. Blood samples were obtained from each rat by jugular vein catheter. Samples were collected at pre-dose and at 0.25, 0.5, 1, 2, 4, 8, 12 and 18 hours post dose. Blood samples were centrifuged to separate red blood cells and the resulting plasma samples were analyzed for free EPA or free DHA. Free EPA or […] extracted from rat plasma with hexane at acidic condition without hydrolysis. Detection was by MS-MS monitoring of negative ion for EPA or DHA. Calculated pharmacokinetic values are mean values from 6 rats for each study drug.
(§1) For all figures and tables, the data are adjusted as follows for comparative purposes. First, the actual plasma levels are baseline adjusted. Thus, for each study arm, the pre-dose level (time=0) is subtracted from the actual plasma levels at each time point, with negative values adjusted to zero. Second, these baseline adjusted values are further adjusted to be molar dose equivalent on a comparative basis among the study arms with respect to EPA or DHA payload (i.e., as if equal amounts of free fatty acid EPA or DHA are administered in each study arm).

[2] = Stability analysis by 1H NMR of samples exposed to air and light; details: ambient temperature
Protocol: Stability analysis was performed using 1H NMR (400 MHz) with acetic acid-d4 at various time point (typically days 1, 14, 30 and 60) using samples exposed to air and light at ambient temperature (clear vials with no caps).

[3] = Intravenous injection pharmacokinetics, plasma free EPA or free DHA; type: in vivo, Sprague-Dawley rats; details: rat
Protocol: Experiments via Intravenous Injection: TP-212 and TP-312 were administered by intravenous injection (20 mg/kg) to Sprague-Dawley rats (n=6/group—3 male and 3 female), and plasma was obtained from serial blood samples taken from each animal at scheduled times ([…]). Blood samples were centrifuged to separate red blood cells and the resulting plasma samples were analyzed for free EPA or free DHA. Free EPA or free DHA was extracted from rat plasma with hexane at acidic condition without hydrolysis. Detection was by MS-MS monitoring of negative ion for EPA or DHA. Calculated pharmacokinetic values are mean values from 6 rats for each study drug.
as §1

Balb/C mice = experiment: Ocular irritation after topical dosing to the cornea (hyperemia, squinting, discharge, lid swelling); type: in vivo; details: for Hyperemia: 3 μL drop in each eye four times daily for 3 days
Protocol: In an embodiment where the ophthalmic formulation is an aqueous formulation, it has been determined in mice that certain formulations can be administered to the surface of the eye without producing irritation that would make them unsuitable for such application. Irritation parameters of TP-211-1, TP-212-1, TP-311-1 and TP-312-1 related to hyperemia, squinting, and discharge were determined in Balb/C mice. Mice were dosed topically to the cornea using a calibrated micropipette, with a 3 μL drop of treatment in each eye four times daily for 3 consecutive days at various concentrations.
TP-211-1 is Lysyl-lysine EPA. TP-212-1 is Lysyl-lysine bis-EPA. TP-311-1 is Lysyl-lysine DHA. TP-312-1 is Lysyl-lysine bis-DHA. The study drugs were prepared using phosphate buffered saline (PBS) to reach target concentrations ranging from 0.1% to 1.0%.
The animals were monitored for scratching at the eye or any other abnormal behavior post-dose. Ocular exams were conducted on Days 1 and 3 with use of a Micron III camera system to take high resolution videos of the right eye of each animal Clinical signs including but not limited to hyperemia, discharge, lid swelling, and squinting were evaluated by trained personnel who was masked as to group assignment. Each clinical sign was graded on a scale of 0-4, with the exception of lid swelling which was graded on a scale of 0-2. Scores were averaged and are expressed as the mean±SEM for each group. Statistical significance was assessed between the treatment arms and the vehicle group. Any significance is noted by asterisks (*=p<0.05, **=p<0.01, ***=p<0.001).

[4] = oral gavage 40 mg/kg, molar dose equivalent, baseline adjusted
[5] = intravenous injection 20 mg/kg, molar dose equivalent, baseline adjusted

For `CC/C=C\C/C=C\C/C=C\C/C=C\C/C=C\C/C=C\CCC(=O)O.CC/C=C\C/C=C\C/C=C\C/C=C\C/C=C\C/C=C\CCC(=O)O.NCCCC[C@H](NC(=O)[C@@H](N)CCCCN)C(=O)O` [Compound 4, (L,L) Lysyl-lysine bis DHA], the “Tmax (free DHA)” value ([1]; oral gavage 40 mg/kg) was 2 h, the “Plasma level of free DHA” value ([1]; oral gavage 40 mg/kg, 0 h (pre-dose), molar dose equivalent, baseline adjusted) was 0 ng/mL and the “Plasma level of free DHA” value ([1]; oral gavage 40 mg/kg, 0.25 h (15 min), molar dose equivalent, baseline adjusted) was 0 ng/mL. The “Plasma level of free DHA” value ([1]; oral gavage 40 mg/kg, 0.5 h (30 min), molar dose equivalent, baseline adjusted) was 4600 ng/mL, the “Plasma level of free DHA” value ([1]; oral gavage 40 mg/kg, 1 h (60 min), molar dose equivalent, baseline adjusted) was 6300 ng/mL and the “Plasma level of free DHA” value ([1]; oral gavage 40 mg/kg, 2 h (120 min), molar dose equivalent, baseline adjusted) was 10400 ng/mL. For the same compound, the “Plasma level of free DHA” value ([1]; oral gavage 40 mg/kg, 4 h (240 min), molar dose equivalent, baseline adjusted) was 5600 ng/mL, the “Plasma level of free DHA” value ([1]; oral gavage 40 mg/kg, 8 h, molar dose equivalent, baseline adjusted) was 1400 ng/mL and the “Plasma level of free DHA” value ([1]; oral gavage 40 mg/kg, 12 h, molar dose equivalent, baseline adjusted) was 0 ng/mL. For the same compound, the “Plasma level of free DHA” value ([1]; oral gavage 40 mg/kg, 18 h, molar dose equivalent, baseline adjusted) was 0 ng/mL, the “AUC 0-1 hrs (free DHA)” value [1, 4] was 3300 ng·h/mL and the “AUC 0-4 hrs (free DHA)” value [1, 4] was 27600 ng·h/mL. For the same compound, the “AUC 0-18 hrs (free DHA)” value [1, 4] was 44400 ng·h/mL, the “Cmax (free DHA)” value [1, 4] was 10400 ng/mL and the “AUC over 18 hours (free DHA), times greater than DHA-FFA” value ([1]; oral gavage) was “approximately 1.2 times”. The “Cmax (free DHA), times greater than DHA-FFA” value ([1]; oral gavage) was “approximately 3.0 times”, the “Stability by NMR (amount of sample remaining relative to original sample)” value ([2]; Day 3) was 1 (1 = >95%) and the “Stability by NMR (amount of sample remaining relative to original sample)” value ([2]; Day 14) was 1 (1 = >95%). For the same compound, the “Stability by NMR (amount of sample remaining relative to original sample)” value ([2]; Day 30) was 1 (1 = >95%), the “Stability by NMR (amount of sample remaining relative to original sample)” value ([2]; Day 60) was 1 (1 = >95%) and the “Tmax (free DHA)” value ([3]; intravenous injection 20 mg/kg) was 1 min. The “Plasma level of free DHA” value ([3]; intravenous injection 20 mg/kg, 1 min, molar dose equivalent, baseline adjusted) was 66400 ng/mL, the “Plasma level of free DHA” value ([3]; intravenous injection 20 mg/kg, 5 min, molar dose equivalent, baseline adjusted) was 15100 ng/mL and the “Plasma level of free DHA” value ([3]; intravenous injection 20 mg/kg, 10 min, molar dose equivalent, baseline adjusted) was 16600 ng/mL. The “Plasma level of free DHA” value ([3]; intravenous injection 20 mg/kg, 15 min, molar dose equivalent, baseline adjusted) was 17500 ng/mL, the “Plasma level of free DHA” value ([3]; intravenous injection 20 mg/kg, 30 min, molar dose equivalent, baseline adjusted) was 16400 ng/mL and the “Plasma level of free DHA” value ([3]; intravenous injection 20 mg/kg, 60 min, molar dose equivalent, baseline adjusted) was 12900 ng/mL. The “Plasma level of free DHA” value ([3]; intravenous injection 20 mg/kg, 120 min, molar dose equivalent, baseline adjusted) was 8500 ng/mL, the “Plasma level of free DHA” value ([3]; intravenous injection 20 mg/kg, 240 min, molar dose equivalent, baseline adjusted) was 7800 ng/mL and the “Plasma level of free DHA” value ([3]; intravenous injection 20 mg/kg, first line (time printed as dash, pre-dose), molar dose equivalent, baseline adjusted) was 0 ng/mL. The “AUC 0-1 hrs (free DHA)” value [3, 5] was 16300 ng·h/mL, the “AUC 0-4 hrs (free DHA)” value [3, 5] was 43300 ng·h/mL and the “Cmax (free DHA)” value [3, 5] was 66400 ng/mL. The “AUC over 1 hour (free DHA), times greater than DHApo” value ([3]; intravenous vs oral gavage) was about 14.7 times, the “AUC over 1 hour (free DHA), times greater than TP-312po” value ([3]; intravenous vs oral gavage) was “approximately 4.9 times” and the “AUC over 4 hours (free DHA), times greater than DHApo” value ([3]; intravenous vs oral gavage) was about 5.0 times. The “AUC over 4 hours (free DHA), times greater than TP-312po” value ([3]; intravenous vs oral gavage) was “approximately 1.6 times”, the “Cmax (free DHA), times greater than DHApo” value ([3]; intravenous vs oral gavage) was about 19.3 times and the “Cmax (free DHA), times greater than TP-312po” value ([3]; intravenous vs oral gavage) was “approximately 6.4 times”. The Hyperemia (Balb/C mice; 0.1% concentration in PBS) was “did not cause any significant increase in hyperemia after the first dose”, the Hyperemia (Balb/C mice; 0.5% concentration in PBS) was “some initial hyperemia after the first dose” and the Hyperemia (Balb/C mice; 1.0% concentration in PBS) was “some initial hyperemia after the first dose”. For the same compound, the Squinting (Balb/C mice; all concentrations tested, topical to cornea) was “none of the concentrations caused squinting throughout the study”, the “Hyperemia at last dose / final evaluation” value (Balb/C mice; concentrations that showed an initial increase or all tested, last dose / final evaluation (Day 3)) was “remained at baseline levels of hyperemia by the last dose of the day” and the “Concentration at which not irritating / well tolerated” value (Balb/C mice; topical to cornea four times daily for 3 days) was “less than 1.0%”.
